Assay results: ChEMBL document CHEMBL2385026, “Identification of C-2 hydroxyethyl imidazopyrrolopyridines as potent JAK1 inhibitors with favorable physicochemical properties and high selectivity over JAK2” (J Med Chem, 2013)

What was measured:
[1] = Apparent permeability across apical to basolateral side in dog MDCK cells; format: ADME, cell-based, Canis lupus familiaris
[2] = molecular target: T1, Tyrosine-protein kinase JAK2 (Homo sapiens, UniProt O60674); format: cell-based, TF-1
[3] = molecular target: T1, Tyrosine-protein kinase JAK2
[4] = Hepatic clearance in human liver microsomes by LC/MS/MS analysis; format: ADME, Microsome
[5] = molecular target: T2, Tyrosine-protein kinase JAK1 (Homo sapiens, UniProt P23458)
[6] = Hepatic clearance in human hepatocytes after 1 to 4 hrs by LC/MS/MS analysis; format: ADME, cell-based, Liver, Hepatocyte
[7] = molecular target: T2, Tyrosine-protein kinase JAK1; remark: listed apart in the source
[8] = molecular target: T2, Tyrosine-protein kinase JAK1; remark: listed apart in the source

T1 sequence (O60674 whole entry): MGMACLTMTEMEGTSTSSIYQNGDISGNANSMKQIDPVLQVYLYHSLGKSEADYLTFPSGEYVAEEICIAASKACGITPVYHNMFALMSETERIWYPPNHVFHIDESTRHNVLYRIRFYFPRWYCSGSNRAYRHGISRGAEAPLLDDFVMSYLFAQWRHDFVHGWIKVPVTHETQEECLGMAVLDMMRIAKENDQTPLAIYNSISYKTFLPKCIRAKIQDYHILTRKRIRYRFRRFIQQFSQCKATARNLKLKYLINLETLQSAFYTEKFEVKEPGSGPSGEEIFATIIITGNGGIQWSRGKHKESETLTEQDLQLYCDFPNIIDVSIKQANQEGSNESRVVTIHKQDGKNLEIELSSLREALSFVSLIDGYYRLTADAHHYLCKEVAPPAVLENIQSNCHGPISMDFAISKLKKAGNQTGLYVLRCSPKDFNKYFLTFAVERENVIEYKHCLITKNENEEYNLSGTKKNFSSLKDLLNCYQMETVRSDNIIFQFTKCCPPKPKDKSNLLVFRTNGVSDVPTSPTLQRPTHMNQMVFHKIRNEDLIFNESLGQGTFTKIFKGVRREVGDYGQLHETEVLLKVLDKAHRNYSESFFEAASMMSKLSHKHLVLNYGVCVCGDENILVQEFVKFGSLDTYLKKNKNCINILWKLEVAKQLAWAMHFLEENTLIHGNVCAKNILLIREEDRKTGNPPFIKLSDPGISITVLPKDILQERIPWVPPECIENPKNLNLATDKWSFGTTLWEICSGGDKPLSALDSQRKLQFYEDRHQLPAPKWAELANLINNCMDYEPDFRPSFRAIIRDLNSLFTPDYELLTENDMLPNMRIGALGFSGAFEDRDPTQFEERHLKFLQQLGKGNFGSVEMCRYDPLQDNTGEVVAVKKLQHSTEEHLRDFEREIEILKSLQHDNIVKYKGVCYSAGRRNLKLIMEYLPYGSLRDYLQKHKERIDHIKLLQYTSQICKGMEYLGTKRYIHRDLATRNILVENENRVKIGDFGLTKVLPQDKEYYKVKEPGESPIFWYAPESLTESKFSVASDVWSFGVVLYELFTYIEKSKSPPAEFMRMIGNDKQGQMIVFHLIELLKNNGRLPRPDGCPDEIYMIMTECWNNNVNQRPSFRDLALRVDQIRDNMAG
T2 sequence (P23458 whole entry): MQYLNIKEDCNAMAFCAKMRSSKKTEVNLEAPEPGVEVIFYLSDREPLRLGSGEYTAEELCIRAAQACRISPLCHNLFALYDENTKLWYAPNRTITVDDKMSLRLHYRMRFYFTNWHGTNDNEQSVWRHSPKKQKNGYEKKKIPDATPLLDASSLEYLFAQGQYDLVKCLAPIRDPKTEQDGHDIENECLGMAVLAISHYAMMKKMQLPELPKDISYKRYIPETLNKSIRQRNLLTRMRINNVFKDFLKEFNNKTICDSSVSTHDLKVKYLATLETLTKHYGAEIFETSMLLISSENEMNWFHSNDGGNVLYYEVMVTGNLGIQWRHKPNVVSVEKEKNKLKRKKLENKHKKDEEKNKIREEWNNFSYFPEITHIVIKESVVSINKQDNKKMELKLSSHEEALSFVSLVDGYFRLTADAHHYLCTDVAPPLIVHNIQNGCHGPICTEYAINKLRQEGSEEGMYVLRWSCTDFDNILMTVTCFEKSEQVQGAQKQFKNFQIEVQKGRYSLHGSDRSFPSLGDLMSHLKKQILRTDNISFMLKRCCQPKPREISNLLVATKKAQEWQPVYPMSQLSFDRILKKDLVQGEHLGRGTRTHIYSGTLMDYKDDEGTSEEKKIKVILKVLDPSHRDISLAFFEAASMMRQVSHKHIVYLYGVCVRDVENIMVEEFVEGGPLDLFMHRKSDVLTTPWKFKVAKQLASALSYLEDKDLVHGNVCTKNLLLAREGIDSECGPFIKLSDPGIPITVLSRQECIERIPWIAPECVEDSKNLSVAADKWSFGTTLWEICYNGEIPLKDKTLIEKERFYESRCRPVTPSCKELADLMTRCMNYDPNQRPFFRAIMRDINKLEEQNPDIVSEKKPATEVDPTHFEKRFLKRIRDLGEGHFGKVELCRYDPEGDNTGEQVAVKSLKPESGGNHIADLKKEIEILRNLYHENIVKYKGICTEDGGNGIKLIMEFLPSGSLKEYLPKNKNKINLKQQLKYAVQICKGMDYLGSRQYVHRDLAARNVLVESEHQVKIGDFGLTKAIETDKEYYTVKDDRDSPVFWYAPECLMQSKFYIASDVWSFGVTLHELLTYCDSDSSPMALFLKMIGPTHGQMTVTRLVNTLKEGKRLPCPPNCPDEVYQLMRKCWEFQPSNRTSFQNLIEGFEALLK

SMILES: C[C@@H](O)c1nc2cnc3[nH]ccc3c2n1C1CCCCC1
- Papp A→B [1]: 23 ×10⁻⁶ cm/s
- EC50 [2]: 1700 nM
- Ki [3]: 21 nM

SMILES: C[C@@H](O)c1nc2cnc3[nH]ccc3c2n1[C@@H]1CCCOC1
- CLhep predicted [4]: 4.6 mL/min/kg
- Ki [5]: 68 nM

SMILES: C[C@@H](O)c1nc2cnc3[nH]ccc3c2n1[C@H]1CC[C@H](NCC(F)F)CC1
- CLhep predicted [4]: 3.6 mL/min/kg
- CLhep predicted [6]: 1.1 mL/min/kg
- Papp A→B [1]: 2.8 ×10⁻⁶ cm/s
- EC50 [7]: 62 nM
- EC50 [8]: 57 nM
- Ki [5]: 1.1 nM

SMILES: C[C@@H](O)c1nc2cnc3[nH]ccc3c2n1[C@@H]1CCCN(C(=O)CC(F)(F)F)C1
- CLhep predicted [4]: 5.2 mL/min/kg
- Ki [5]: 43 nM

SMILES: CCN1CCC(n2c([C@@H](C)O)nc3cnc4[nH]ccc4c32)C(F)(F)C1 (some centres undefined)
- CLhep predicted [4]: 2.9 mL/min/kg
- CLhep predicted [6]: 3.7 mL/min/kg
- Papp A→B [1]: 15 ×10⁻⁶ cm/s
- EC50 [7]: 330 nM
- EC50 [8]: 88 nM
- Ki [5]: 2 nM

SMILES: C[C@@H](O)c1nc2cnc3[nH]ccc3c2n1[C@H]1CC[C@@H](C#N)CC1
- CLhep predicted [4]: 4.3 mL/min/kg
- CLhep predicted [6]: 5.6 mL/min/kg
- Papp A→B [1]: 4.2 ×10⁻⁶ cm/s
- EC50 [7]: 78 nM
- EC50 [8]: 49 nM
- Ki [5]: 0.9 nM

SMILES: C[C@H](O)c1nc2cnc3[nH]ccc3c2n1C1CCCCC1
- EC50 [2]: 5300 nM
- Ki [3]: 90 nM

SMILES: C[C@@H](O)c1nc2cnc3[nH]ccc3c2n1[C@H]1CC[C@@H](O)CC1
- CLhep predicted [4]: 2.1 mL/min/kg
- EC50 [8]: 380 nM
- Ki [5]: 12 nM

SMILES: C[C@@H](O)c1nc2cnc3[nH]ccc3c2n1[C@H]1CC[C@H](O)CC1
- CLhep predicted [4]: 1.9 mL/min/kg
- EC50 [7]: 730 nM
- EC50 [8]: 410 nM

SMILES: OC[C@H](O)c1nc2cnc3[nH]ccc3c2n1C1CCCCC1
- EC50 [8]: 320 nM
- Ki [5]: 7.2 nM

SMILES: OC[C@@H](O)c1nc2cnc3[nH]ccc3c2n1C1CCCCC1
- CLhep predicted [4]: 1.8 mL/min/kg
- CLhep predicted [6]: 6.8 mL/min/kg
- Papp A→B [1]: 16 ×10⁻⁶ cm/s
- EC50 [7]: 220 nM
- EC50 [8]: 69 nM
- Ki [5]: 1.6 nM

SMILES: CO[C@H]1CC[C@H](n2c([C@@H](C)O)nc3cnc4[nH]ccc4c32)CC1
- CLhep predicted [4]: 1.3 mL/min/kg
- CLhep predicted [6]: 5.9 mL/min/kg
- Papp A→B [1]: 6.7 ×10⁻⁶ cm/s
